According to patent publication US10716769B2 (GUANGZHOU JTREAT BIOSCI. LTD., priority 2015, dated 2020):

Tests used:
Assay in all cases: MTT in vitro tumor cell inhibition
Type in all cases: cell-based
[1] = tested on: human cervical cancer cell line (HeLa); details: 3 days
From the text: (§1) An effective amount of the above compounds and/or the compositions containing the same used as an active ingredient have an effect on inhibiting the tumor cells. The present invention detects the inhibitory effect of the hydroxy-substituted benzophenone compounds on the proliferation of the in vitro cultured human tumor cells by the methylthiazolyl tetrazolium method.
(§2) The method is used to detect cell viability. […] Particles can be dissolved by dimethyl sulfoxide (DMSO) isopropyl alcohol or 10% acidified SDS (sodium dodecyl sulfate), and a microplate reader is used to measure the OD value at A570 wavelength, which indirectly reflects the number of live cells. The method is used for detection of the cytokines bioactivity, as well as anti-tumor drugs and tumor radiosensitivity and cytotoxicity test, and has the characteristics of being simple, fast, economical, sensitive and accurate and having good reproducibility and no need to use radionuclides. This method has been widely used in screening preclinical anticancer drugs and detecting the drug sensitivity of fresh tumor cells. The method is as below:
(§3) (1) The tumor cell suspension prepared by 0.25% of trypsin digestion and adjusted to a cell concentration of 10^5/ml with RPMI1640 containing 10% fetal calf serum is added to a 96-well plate with 100 μl for each well, cultured 24 hours, and then different dosages of drugs are added with 100 μl/well, for which, the negative control groups, positive control groups and withering wells are set, and 4 parallel wells are set for each group.
(§4) (2) They are continually cultured in incubator containing 5% of CO2 at 37° C. for 24 to 48 hours. MTT solution (5 g/L) is added to each well before the termination of the experiment. The OD value at A570 nm is detected by microplate reader. The OD value at A570 of the negative group without the addition of drugs is taken as a control. The cell survival rate and cell inhibition rate of drugs are calculated according to the following formula: Cell survival rate=(OD value of test group/OD value of control group)×100% Cell inhibition rate (%)=(OD value of the control group−OD value of the test group/(OD value of the control group−OD value of the blank group)
(§5) 1. Tumor cell lines: human glioma cell line (U251), human colon cancer cell line (LOVO), human hepatoma cell line (HepG2), human lung cancer cell line (PC84045), human endometrial carcinoma cell line (JEC), human renal carcinoma (GRC), human gastric cancer cell line (MCG804), human cervical cancer cell line (HeLa), human hepatocellular carcinoma cell line (BEL-7402) and human umbilical vein endothelial cell line (ECV304) purchased from Animal Experimental Center of Zhongshan Medical College, and preserved by the present laboratory.
(§6) The tumor cell lines are cultured in RPMI-1640 medium containing 15% of the newborn bovine serum in a conventional manner, placed in the humidification incubator containing 5% of CO2 for being cultured at 37° C., and are observed for growth by an inverted microscope. A subculture is conducted every about 3-5 days, the cells in logarithmic growth phase are adopted to be digested with 0.25% of trypsin, and the serum-free RPMI-1640 medium is used for culturing the cell suspension; the blood counting plate makes counting, the trypan blue exclusion tests the cell activity, and the cell viability>95% is used for formal tests.
(§7) Liquid preparation: the compounds are labeled with the codes respectively, DMSO is used to dissolve each compound, the bacterial filter is used to remove bacteria, and each compound is prepared into 10^−4 g/ml, 10^−5 g/ml, 10^−6 g/ml and preserved at 4° C. for use. […]

[2] = tested on: human colon cancer cell line (LOVO); details: 3 days
From the text: as §1, §2, §3, §4, §5, §6, §7

[3] = tested on: human endometrial carcinoma cell line (JEC); details: 3 days
From the text: as §1, §2, §3, §4, §5, §6, §7

[4] = tested on: human gastric cancer cell line (MCG804); details: 3 days
From the text: as §1, §2, §3, §4, §5, §6, §7

[5] = tested on: human glioma cell line (U251); details: 3 days; for Inhibitory rate, sensitivity class: U251, 10^−6 g/ml
From the text: as §1, §2, §3, §4, §5, §6, §7

[6] = tested on: human hepatoma cell line (HepG2); details: 3 days
From the text: as §1, §2, §3, §4, §5, §6, §7

[7] = tested on: human lung cancer cell line (PC84045); details: 3 days
From the text: as §1, §2, §3, §4, §5, §6, §7

In the case of O=C(c1cc(O)c(O)cc1O)c1ccc(O)c(O)c1O, the Inhibitory rate % ([1]; 10^−4 g/ml) is reported as 60.92%, the “Inhibitory rate, sensitivity class” value ([1]; 10^−5 g/ml) is reported as “insensitive (<30% means insensitive)” and the “Inhibitory rate, sensitivity class” value ([1]; 10^−6 g/ml) is reported as “insensitive (<30% means insensitive)”. The Inhibitory rate % ([2]; 10^−4 g/ml) was 51.19%, the “Inhibitory rate, sensitivity class” value ([2]; 10^−5 g/ml) was “insensitive (<30% means insensitive)” and the “Inhibitory rate, sensitivity class” value ([2]; 10^−6 g/ml) was “insensitive (<30% means insensitive)”. For the same compound, the Inhibitory rate % ([3]; 10^−4 g/ml) was 83.16%, the Inhibitory rate % ([3]; 10^−5 g/ml) was 42.57% and the “Inhibitory rate, sensitivity class” value ([3]; 10^−6 g/ml) was “insensitive (<30% means insensitive)”. The Inhibitory rate % ([4]; MCG804, 10^−4 g/ml) was 83.48%, the Inhibitory rate % ([4]; MCG804, 10^−5 g/ml) was 72.89% and the “Inhibitory rate, sensitivity class” value ([4]; MCG804, 10^−6 g/ml) was “insensitive (<30% means insensitive)”. The Inhibitory rate % ([5]; U251, 10^−4 g/ml) was 68.82%, the Inhibitory rate % ([5]; U251, 10^−5 g/ml) was 31.35% and the “Inhibitory rate, sensitivity class” value [5] was “insensitive (<30% means insensitive)”. For the same compound, the Inhibitory rate % ([6]; HepG2, 10^−4 g/ml) was 85.12%, the Inhibitory rate % ([6]; HepG2, 10^−5 g/ml) was 51.57% and the “Inhibitory rate, sensitivity class” value ([6]; HepG2, 10^−6 g/ml) was “insensitive (<30% means insensitive)”. For the same compound, the Inhibitory rate % ([7]; PC84045, 10^−4 g/ml) was 82.49%, the Inhibitory rate % ([7]; PC84045, 10^−5 g/ml) was 70.97% and the Inhibitory rate % ([7]; PC84045, 10^−6 g/ml) was 49.70%.
For O=C(c1ccc(O)c(O)c1O)c1ccc(O)c(O)c1O [2,3,4,2′,3′,4′-hexahydroxybenzophenone], the Inhibitory rate % ([1]; 10^−4 g/ml) was 61.12%, the “Inhibitory rate, sensitivity class” value ([1]; 10^−5 g/ml) was “insensitive (<30% means insensitive)” and the “Inhibitory rate, sensitivity class” value ([1]; 10^−6 g/ml) was “insensitive (<30% means insensitive)”. For the same compound, the “Inhibitory rate, sensitivity class” value ([2]; 10^−4 g/ml) was “insensitive (<30% means insensitive)”, the “Inhibitory rate, sensitivity class” value ([2]; 10^−5 g/ml) was “insensitive (<30% means insensitive)” and the “Inhibitory rate, sensitivity class” value ([2]; 10^−6 g/ml) was “insensitive (<30% means insensitive)”. The Inhibitory rate % ([3]; 10^−4 g/ml) was 85.63%, the Inhibitory rate % ([3]; 10^−5 g/ml) was 42.79% and the “Inhibitory rate, sensitivity class” value ([3]; 10^−6 g/ml) was “insensitive (<30% means insensitive)”. For the same compound, the Inhibitory rate % ([4]; MCG804, 10^−4 g/ml) was 80.93%, the Inhibitory rate % ([4]; MCG804, 10^−5 g/ml) was 30.12% and the “Inhibitory rate, sensitivity class” value ([4]; MCG804, 10^−6 g/ml) was “insensitive (<30% means insensitive)”. For the same compound, the Inhibitory rate % ([5]; U251, 10^−4 g/ml) was 83.26%, the Inhibitory rate % ([5]; U251, 10^−5 g/ml) was 30.87% and the “Inhibitory rate, sensitivity class” value [5] was “insensitive (<30% means insensitive)”. For the same compound, the Inhibitory rate % ([6]; HepG2, 10^−4 g/ml) was 86.15%, the Inhibitory rate % ([6]; HepG2, 10^−5 g/ml) was 75.54% and the “Inhibitory rate, sensitivity class” value ([6]; HepG2, 10^−6 g/ml) was “insensitive (<30% means insensitive)”. For the same compound, the Inhibitory rate % ([7]; PC84045, 10^−4 g/ml) was 84.60%, the Inhibitory rate % ([7]; PC84045, 10^−5 g/ml) was 72.34% and the “Inhibitory rate, sensitivity class” value ([7]; PC84045, 10^−6 g/ml) was “insensitive (<30% means insensitive)”.
O=C(c1ccccc1)c1ccc(O)c(O)c1O [2,3,4-trihydroxybenzophenone] was tested, and the Inhibitory rate % ([1]; 10^−4 g/ml) was 89.81%, the Inhibitory rate % ([1]; 10^−5 g/ml) was 34.53% and the “Inhibitory rate, sensitivity class” value ([1]; 10^−6 g/ml) was “insensitive (<30% means insensitive)”. The Inhibitory rate % ([2]; 10^−4 g/ml) was 90.02%, the Inhibitory rate % ([2]; 10^−5 g/ml) was 46.78% and the “Inhibitory rate, sensitivity class” value ([2]; 10^−6 g/ml) was “insensitive (<30% means insensitive)”. For the same compound, the Inhibitory rate % ([3]; 10^−4 g/ml) was 86.79%, the Inhibitory rate % ([3]; 10^−5 g/ml) was 40.97% and the “Inhibitory rate, sensitivity class” value ([3]; 10^−6 g/ml) was “insensitive (<30% means insensitive)”. The Inhibitory rate % ([4]; MCG804, 10^−4 g/ml) was 87.14%, the Inhibitory rate % ([4]; MCG804, 10^−5 g/ml) was 62.75% and the “Inhibitory rate, sensitivity class” value ([4]; MCG804, 10^−6 g/ml) was “insensitive (<30% means insensitive)”. For the same compound, the Inhibitory rate % ([5]; U251, 10^−4 g/ml) was 85.42%, the Inhibitory rate % ([5]; U251, 10^−5 g/ml) was 43.57% and the “Inhibitory rate, sensitivity class” value [5] was “insensitive (<30% means insensitive)”. The Inhibitory rate % ([6]; HepG2, 10^−4 g/ml) was 93.40%, the Inhibitory rate % ([6]; HepG2, 10^−5 g/ml) was 58.05% and the “Inhibitory rate, sensitivity class” value ([6]; HepG2, 10^−6 g/ml) was “insensitive (<30% means insensitive)”. For the same compound, the Inhibitory rate % ([7]; PC84045, 10^−4 g/ml) was 85.75%, the Inhibitory rate % ([7]; PC84045, 10^−5 g/ml) was 32.79% and the “Inhibitory rate, sensitivity class” value ([7]; PC84045, 10^−6 g/ml) was “insensitive (<30% means insensitive)”.
For O=C(c1ccc(O)cc1O)c1ccc(O)cc1O [2,4,2′,4′-tetrahydroxybenzophenone], the Inhibitory rate % ([1]; 10^−4 g/ml) was 31.05%, the “Inhibitory rate, sensitivity class” value ([1]; 10^−5 g/ml) was “insensitive (<30% means insensitive)” and the “Inhibitory rate, sensitivity class” value ([1]; 10^−6 g/ml) was “insensitive (<30% means insensitive)”. For the same compound, the Inhibitory rate % ([2]; 10^−4 g/ml) was 53.29%, the “Inhibitory rate, sensitivity class” value ([2]; 10^−5 g/ml) was “insensitive (<30% means insensitive)” and the “Inhibitory rate, sensitivity class” value ([2]; 10^−6 g/ml) was “insensitive (<30% means insensitive)”. For the same compound, the Inhibitory rate % ([3]; 10^−4 g/ml) was 46.70%, the “Inhibitory rate, sensitivity class” value ([3]; 10^−5 g/ml) was “insensitive (<30% means insensitive)” and the “Inhibitory rate, sensitivity class” value ([3]; 10^−6 g/ml) was “insensitive (<30% means insensitive)”. For the same compound, the Inhibitory rate % ([4]; MCG804, 10^−4 g/ml) was 38.95%, the “Inhibitory rate, sensitivity class” value ([4]; MCG804, 10^−5 g/ml) was “insensitive (<30% means insensitive)” and the “Inhibitory rate, sensitivity class” value ([4]; MCG804, 10^−6 g/ml) was “insensitive (<30% means insensitive)”. For the same compound, the Inhibitory rate % ([6]; HepG2, 10^−4 g/ml) was 74.85%, the “Inhibitory rate, sensitivity class” value ([6]; HepG2, 10^−5 g/ml) was “insensitive (<30% means insensitive)” and the “Inhibitory rate, sensitivity class” value ([6]; HepG2, 10^−6 g/ml) was “insensitive (<30% means insensitive)”. The Inhibitory rate % ([7]; PC84045, 10^−4 g/ml) was 53.40%, the “Inhibitory rate, sensitivity class” value ([7]; PC84045, 10^−5 g/ml) was “insensitive (<30% means insensitive)” and the “Inhibitory rate, sensitivity class” value ([7]; PC84045, 10^−6 g/ml) was “insensitive (<30% means insensitive)”.
